Measured values taken from US20240299698A1, “PREVENTION AND TREATMENT OF POST-OPERATIVE COGNITIVE DYSFUNCTION (POCD)” (Noetix Pharma LLC, priority 2022, published 2024).

Legend:
[1] = healthy subjects; cited from earlier work
[2] = tested on: hippocampal microglial cells; test: Evaluation of hippocampal microglial cell morphology (Iba1 immunohistochemistry); type: in vivo, Male C57BI/6 mice; details: for Iba1-positive microglial cell morphology (activated characteristics), rank 0-2: 8 days post-surgery, n=8
Method: A subset of mice was evaluated to compare acute and chronic treatment of pirfenidone paradigms against Normal Control and Disease Control tissues (n=8/treatment group). A neuroinflammation marker, ionizing calcium binding adaptor molecule 1 (Iba1), was investigated in the hippocampus as an indication of the level of inflammatory response. The hippocampus is particularly vulnerable to both acute and chronic stressors, including those triggered by physical trauma.
The right hemispheres of a subsection of study mice were evaluated via fluorescent IHC analysis to investigate the impact of laparotomy and drug intervention on hippocampal inflammatory mechanisms. Iba1 was assessed as a marker of neuroinflammation because it is indicative of inflammatory response in the central nervous system.
Cryoprotected hemispheres were blocked in OCT compound (Thermofisher) and stored at −80° C. until sectioning. […]
• To obtain micrographs for quantification • Fluorescent microscope (Zeiss Axio Observer Z1) Apotome.2 imaging system Zeiss imaging software (Zen 2 Blue edition) • Settings were manually selected to allow visualization of signal on all sections (signal must be visible on low intensity sections but must not be overexposed on high intensity sections). […]
Ionized calcium-binding adapter molecule 1 (Iba1) is a microglia-specific calcium-binding protein that participates in phagocytosis in activated microglia. […] Iba1 is thus a sensitive marker of inflammation and is quantified by measuring the intensity of the Iba1 positive signal. […]
Hippocampal tissue from the right hemispheres was evaluated for functional cell morphology using non-parametric rank ordering of tissue as follows: • 0=normal morphology (ramified, mostly ramified) • 1=moderate morphology (ramified-activated) • 2=activated morphology (activated, activated ameboid, ameboid)

[3] = Stability of pirfenidone dose preparation in vehicle; type: physicochemical; details: 0.9% saline
Method: • Vehicle: 0.9% saline • Working concentration: 66.67 mg/ml • Preparation: Add 1000 mg of pirfenidone to 15 mL of 0.9% saline • Stability in vehicle: Stable for a minimum of 8 days
• Vehicle: 0.9% saline • Working concentration: 33.33 mg/mL • Preparation: Add 12 mL of high dose pirfenidone to 12 mL of 0.9% saline • Stability in vehicle: Stable for a minimum of 8 days

[4] = Macias-Barragan J, et al.; cited from earlier work
mouse model of (POCD) = test: Behavioral test battery, summary of experimental results; type: in vivo, Male C57BI/6 mice
Text: The project included experiments performed to investigate the therapeutic effects of administration of pirfenidone in a mouse model of (POCD). The model was developed during pilot work completed earlier in the study and was induced by performing a laparotomy with a 5-minute manipulation of abdominal viscera and musculature. Weights and physical condition of the animals were closely monitored throughout the study, with presurgical and daily post-surgical gavage of pirfenidone or saline administered. Behavioral testing was performed to evaluate alterations in learning and memory processes using fear conditioning, novel object recognition, and water maze paradigms. Following euthanasia on the eighth day post-surgery, hippocampal tissue was preserved and later evaluated for morphological characteristics related to microglial cell activation.
Behavioral testing was performed at various time points throughout the study as outlined in each separate section below and summarized in Table 2. All tests were recorded and analyzed by experimenters blinded to treatment. Data were obtained through a combination of experimenter scoring and use of AnyMaze™ Video Tracking System evaluation.

Cc1ccc(=O)n(-c2ccccc2)c1 [pirfenidone, 5-methyl-1-phenyl-2-(1H)-pyridone]
mean terminal half-life [1]: approximately 3 hours
Iba1-positive microglial cell morphology (activated characteristics), rank 0-2 ([2]; Acute): reduced this microglial activation
Iba1-positive microglial cell morphology (activated characteristics), rank 0-2 ([2]; Chronic): reduced this microglial activation
microglial activation in the hippocampus (summary) ([2]; summary statement, regimen not distinguished): reduced microglial activation in the hippocampus
Stability in vehicle ([3]; 33.33 mg/mL (low dose)): ≥ 8 days
Stability in vehicle ([3]; 66.67 mg/ml (high dose)): ≥ 8 days
crossing of the blood brain barrier [4]: can cross the blood brain barrier
behavioral testing responses (summary) (mouse model of (POCD); Acute pirfenidone treated animals): equivalent to or better than those seen in Normal Controls
behavioral testing responses (summary) (mouse model of (POCD); Chronic pirfenidone administration): beneficial effects, particularly for recognition memory
behavioral changes associated with memory in postoperative cognitive dysfunction (summary) (mouse model of (POCD); overall, pirfenidone treatment): protective effect
